For assay [1], the target named is T1, human B1R receptor (bradykinin 1 receptor) (Homo sapiens, UniProt P46663).
T1 construct: host or cells: CHO K1 cells (hB1R cells)
T1 sequence (P46663 1-353): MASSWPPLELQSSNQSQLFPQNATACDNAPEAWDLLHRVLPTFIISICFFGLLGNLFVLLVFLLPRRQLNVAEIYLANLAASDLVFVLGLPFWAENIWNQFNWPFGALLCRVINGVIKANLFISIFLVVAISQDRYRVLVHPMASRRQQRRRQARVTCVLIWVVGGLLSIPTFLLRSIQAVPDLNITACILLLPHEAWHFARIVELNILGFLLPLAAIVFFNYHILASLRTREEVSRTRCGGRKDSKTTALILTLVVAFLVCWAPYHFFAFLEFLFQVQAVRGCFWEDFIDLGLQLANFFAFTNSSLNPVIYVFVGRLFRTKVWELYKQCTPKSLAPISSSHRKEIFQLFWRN
Nature of the assay: FLIPR Ca2+ assay (Fluo-4) on CHO K1 cells stably transfected with the human B1R gene; % activation and % inhibition at 10 μM. The settings on record: CHO-K1, test substance 10 μM; CHO K1 hB1R cells; Ca2+ inflow after 0.5 nM Lys-Des-Arg9-bradykinin; read-out: B1R antagonism, human [10 μM] % inhibition. The format is cell-based. The essentials: (§1)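 CHO K1 cells stably expressing human or rat B1R, Fluo-4 loaded, read by FLIPR (peak fluorescence). Compound at 10 µM first gives % activation versus agonist; after 10 min, agonist (human: 0.5 nM Lys-Des-Arg9-bradykinin; rat: 100 nM Des-Arg9-bradykinin) gives % inhibition relative to maximal inhibition.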

The target in assay [2] is T2, B1R receptor of the rat (bradykinin 1 receptor) (Rattus norvegicus, UniProt P97583).
T2 construct: host or cells: CHO K1 cells (rB1R cells)
T2 sequence (P97583 1-337): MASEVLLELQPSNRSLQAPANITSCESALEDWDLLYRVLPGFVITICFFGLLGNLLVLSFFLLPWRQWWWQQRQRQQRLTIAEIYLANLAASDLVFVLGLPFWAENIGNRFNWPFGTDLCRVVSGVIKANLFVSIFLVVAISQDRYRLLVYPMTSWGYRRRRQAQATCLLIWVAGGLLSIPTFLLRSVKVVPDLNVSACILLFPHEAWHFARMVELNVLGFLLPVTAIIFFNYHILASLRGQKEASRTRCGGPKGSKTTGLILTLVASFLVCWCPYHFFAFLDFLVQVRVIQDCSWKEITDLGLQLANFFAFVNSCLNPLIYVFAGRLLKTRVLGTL
Nature of the assay: FLIPR Ca2+ assay (Fluo-4) on CHO K1 cells stably transfected with the B1R gene of the rat; % activation and % inhibition at 10 μM. The format is cell-based. The settings on record: CHO-K1, test substance 10 μM; CHO K1 rB1R cells; Ca2+ inflow after 100 nM Des-Arg9-bradykinin; read-out: B1R antagonism, rat [10 μM] % inhibition. The essentials:
as §1

Structures are written as SMILES.

Consider `COc1cc(C)c(S(=O)(=O)N(C)CCOCC(=O)N2CCC(O)(CCc3cccnc3)CC2)c(C)c1` [Example 140, N-(2-(2-(4-hydroxy-4-(2-(pyridin-3-yl)ethyl)piperidin-1-yl)-2-oxoethoxy)ethyl)-4-methoxy-N,2,6-trimethylphenylsulfonamide], for which the figures for the inhibition at 10 µM in assay [1] and in assay [2] were 104% and 101%, respectively.
Taken in the same sequence, the figures for `COc1cc(C)c(S(=O)(=O)N(C)CCOCC(=O)N2CCC(O)(c3cccc(F)c3)CC2)c(C)c1` [Example 141, N-(2-(2-(4-(3-fluorophenyl)-4-hydroxypiperidin-1-yl)-2-oxoethoxy)ethyl)-4-methoxy-N,2,6-trimethylphenylsulfonamide] were 104% and 100%.
As for `COc1cc(C)c(S(=O)(=O)N2CCCCC2COCC(=O)N2CCC(O)(c3cccc(F)c3)CC2)c(C)c1` (centres unmarked) [Example 142, 1-(4-(3-fluorophenyl)-4-hydroxypiperidin-1-yl)-2-((1-(4-methoxy-2,6-dimethylphenylsulfonyl)piperidin-2-yl)methoxy)ethanone], the inhibition at 10 µM in assay [1] stood at 103%; in assay [2], 100%.
In the case of `COc1cc(C)c(S(=O)(=O)N(C)CCOCC(=O)N2CCC(O)(c3cccnc3)CC2)c(C)c1` [Example 143, N-(2-(2-(4-hydroxy-4-(pyridin-3-yl)piperidin-1-yl)-2-oxoethoxy)ethyl)-4-methoxy-N,2,6-trimethylphenylsulfonamide], the inhibition at 10 µM in assay [1] is 105%; in assay [2], 100%.
For `COc1cc(C)c(S(=O)(=O)N2CCCCC2COCC(=O)N2CCC(O)(c3ccncc3)CC2)c(C)c1` (centres unmarked) [Example 144, 1-(4-hydroxy-4-(pyridin-4-yl)piperidin-1-yl)-2-((1-(4-methoxy-2,6-dimethylphenylsulfonyl)piperidin-2-yl)methoxy)ethanone], the inhibition at 10 µM was found to be 104% in assay [1] and 101% in assay [2].
`O=C(COCC1CCc2ccccc2N1S(=O)(=O)c1ccc(Cl)c(Cl)c1)N1CCC(O)(c2ccccn2)CC1` (centres unmarked) [Example 146, 2-((1-(3,4-dichlorophenylsulfonyl)-1,2,3,4-tetrahydroquinolin-2-yl)methoxy)-1-(4-hydroxy-4-(pyridin-2-yl)piperidin-1-yl)ethanone]: the values for the inhibition at 10 µM in assay [1] and in assay [2] were 70.7% and 92.8%, respectively.
Regarding `O=C(COCC1CCc2ccccc2N1S(=O)(=O)c1ccc(Cl)c(Cl)c1)N1CCC(O)(c2ccncc2)CC1` (centres unmarked) [Example 147, 2-((1-(3,4-dichlorophenylsulfonyl)-1,2,3,4-tetrahydroquinolin-2-yl)methoxy)-1-(4-hydroxy-4-(pyridin-4-yl)piperidin-1-yl)ethanone], the inhibition at 10 µM is 53.9% in assay [1] and 93.3% in assay [2].
Regarding `Cc1ccc2ccccc2c1S(=O)(=O)N(C)CCOCC(=O)N1CCC(O)(c2cccnc2)CC1` [Example 148, N-(2-(2-(4-hydroxy-4-(pyridin-3-yl)piperidin-1-yl)-2-oxoethoxy)ethyl)-N,2-dimethylnaphthalene-1-sulfonamide], the inhibition at 10 µM was 100% in assay [1] and 99% in assay [2].
Taken in the same sequence, the figures for `Cc1cc(S(=O)(=O)N(C)CCOCC(=O)N2CCC(O)(c3cccnc3)CC2)c(C)cc1Cl` [Example 149, 4-chloro-N-(2-(2-(4-hydroxy-4-(pyridin-3-yl)piperidin-1-yl)-2-oxoethoxy)ethyl)-N,2,5-trimethylphenylsulfonamide] were 99.1% and 100%.
Taken in the same sequence, the figures for `Cc1cc(S(=O)(=O)N(C)CCOCC(=O)N2CCC(O)(c3ccc(Cl)cc3)CC2)c(C)cc1Cl` [Example 150, 4-chloro-N-(2-(2-(4-(4-chlorophenyl)-4-hydroxypiperidin-1-yl)-2-oxoethoxy)ethyl)-N,2,5-trimethylphenylsulfonamide] were 95.3% and 93.7%.
Taken in the same sequence, the figures for `Cc1cc(S(=O)(=O)N(C)CCOCC(=O)N2CCC(O)(c3ccc(Br)cc3)CC2)c(C)cc1Cl` [Example 151, N-(2-(2-(4-(4-bromophenyl)-4-hydroxypiperidin-1-yl)-2-oxoethoxy)ethyl)-4-chloro-N,2,5-trimethylphenylsulfonamide] were 97.8% and 86.9%.
Take `Cc1cc(S(=O)(=O)N(C)CCOCC(=O)N2CCC(O)(c3ccccc3)CC2)c(C)cc1Cl` [Example 152, 4-chloro-N-(2-(2-(4-hydroxy-4-phenylpiperidin-1-yl)-2-oxoethoxy)ethyl)-N,2,5-trimethylphenylsulfonamide]: the inhibition at 10 µM in assay [1] came out at 81.6%; in assay [2], 77.2%.
`Cc1cc(S(=O)(=O)N(C)CCOCC(=O)N2CCC(O)(Cc3ccccc3)CC2)c(C)cc1Cl` [Example 153, N-(2-(2-(4-benzyl-4-hydroxypiperidin-1-yl)-2-oxoethoxy)ethyl)-4-chloro-N,2,5-trimethylphenylsulfonamide]: the inhibition at 10 µM in assay [1] came to 71.8%; in assay [2] it was 69.1%.
`Cc1cc(S(=O)(=O)N(C)CCOCC(=O)N2CCC(O)(c3cccc(C(F)(F)F)c3)CC2)c(C)cc1Cl` [Example 154, 4-chloro-N-(2-(2-(4-hydroxy-4-(3-(trifluoromethyl)phenyl)piperidin-1-yl)-2-oxoethoxy)ethyl)-N,2,5-trimethylphenylsulfonamide]: the inhibition at 10 µM came out at 98.8% in assay [1] and 96.4% in assay [2].
With `O=C(COCC1CCCCN1S(=O)(=O)c1ccc(C(F)(F)F)cc1)N1CCC(O)(c2cccnc2)CC1` (centres unmarked) [Example 155, 1-(4-hydroxy-4-(pyridin-3-yl)piperidin-1-yl)-2-((1-(4-(trifluoromethyl)phenylsulfonyl)piperidin-2-yl)methoxy)ethanone], the results for the inhibition at 10 µM in assay [1] and in assay [2] were 30.3% and 60.3%, respectively.
For `O=C(COCC1CCCCN1S(=O)(=O)c1ccc(C(F)(F)F)cc1)N1CCC(O)(c2ccc(Cl)cc2)CC1` (centres unmarked) [Example 156, 1-(4-(4-chlorophenyl)-4-hydroxypiperidin-1-yl)-2-((1-(4-(trifluoromethyl)phenylsulfonyl)piperidin-2-yl)methoxy)ethanone], the inhibition at 10 µM in assay [1] was found to be 20.9%; in assay [2] it was 70.3%.
On the same counts, the results for `Cc1cc(S(=O)(=O)N2CCCCC2COCC(=O)N2CCC(O)(c3cccnc3)CC2)c(C)cc1Cl` (centres unmarked) [Example 157, 2-((1-(4-chloro-2,5-dimethylphenylsulfonyl)piperidin-2-yl)methoxy)-1-(4-hydroxy-4-(pyridin-3-yl)piperidin-1-yl)ethanone] are 77.1% and 101%.
Take `Cc1cc(S(=O)(=O)N2CCCCC2COCC(=O)N2CCC(O)(c3ccccc3)CC2)c(C)cc1Cl` (centres unmarked) [Example 158, 2-((1-(4-chloro-2,5-dimethylphenylsulfonyl)piperidin-2-yl)methoxy)-1-(4-hydroxy-4-phenylpiperidin-1-yl)ethanone]: the inhibition at 10 µM in assay [1] is 44.9%; in assay [2], 105%.
For the compound `Cc1cc(S(=O)(=O)N2CCCCC2COCC(=O)N2CCC(O)(Cc3ccccc3)CC2)c(C)cc1Cl` (centres unmarked) [Example 159, 1-(4-benzyl-4-hydroxypiperidin-1-yl)-2-((1-(4-chloro-2,5-dimethylphenylsulfonyl)piperidin-2-yl)methoxy)ethanone], the inhibition at 10 µM in assay [1] stood at 38.5%; in assay [2], 97%.
In the case of `Cc1ccc(S(=O)(=O)N2CCCCC2COCC(=O)N2CCC(O)(c3cccnc3)CC2)cc1Cl` (centres unmarked) [Example 161, 2-((1-(3-chloro-4-methylphenylsulfonyl)piperidin-2-yl)methoxy)-1-(4-hydroxy-4-(pyridin-3-yl)piperidin-1-yl)ethanone], the inhibition at 10 µM in assay [1] was 78.5%; in assay [2], 80.8%.
Taken in the same sequence, the figures for `O=C(COCC1CCCCN1S(=O)(=O)c1c(Cl)cc(C(F)(F)F)cc1Cl)N1CCC(O)(c2ccccc2)CC1` (centres unmarked) [Example 162, 2-((1-(2,6-dichloro-4-(trifluoromethyl)phenylsulfonyl)piperidin-2-yl)methoxy)-1-(4-hydroxy-4-phenylpiperidin-1-yl)ethanone] were 24.6% and 105%.
On the same counts, the results for `O=C(COCC1CCCCN1S(=O)(=O)c1c(Cl)cc(C(F)(F)F)cc1Cl)N1CCC(O)(Cc2ccccc2)CC1` (centres unmarked) [Example 163, 1-(4-benzyl-4-hydroxypiperidin-1-yl)-2-((1-(2,6-dichloro-4-(trifluoromethyl)phenylsulfonyl)piperidin-2-yl)methoxy)ethanone] are 46.1% and 101%.

For the origin of these results see patent publication US8580965B2, “Substituted sulfonamide compounds” (Gruenenthal GmbH, priority 2006, dated 2013).
